Experimental data as given in patent US11235976B2, “Nanocarbon-iron composite system as well as composition, preparation method and use thereof” (Chongqing Lummy Pharmaceutical Co., LTD, priority 2017, dated 2022).

Key:
[1] = tested on: SKOV3 ovarian cancer cells; test: Cell experiment, cell survival rate; format: cell-based; conditions: iron preparation alone 13.65 μg/mL, 48 h
Protocol: (§1) Cells growing in a log phase are collected, the concentration of the cell suspension is adjusted, 100 μL of cell suspension is added to each well and the cells are plated (edge wells are filled with sterile PBS) at a density of 1×10^3-10^4 cells/well. The cells are incubated for 24 hours at 37° C. under the condition of 5% CO2, a nanocarbon-iron solution having a concentration gradient (nanocarbon content: 125, 62.5, 15.63 and 3.91 μg/mL; and ferric ion content: 13.65, 6.83, 1.71 and 0.43 μg/mL) is added, and three sub-wells are set. Then the cells are incubated for 48 hours at 37° C. under the condition of 5% CO2. 10 μL of CCK8 solution is added to each well and then the cells are continuously incubated for 2 hours. The absorbance of each well is measured at OD=450 nm with the microplate reader. In addition, a negative control group, nanocarbon control groups having the same concentration and iron preparation control groups having the same concentration are set.
as §1, with “and 1” for “100”, “of a 6-well plate” for “and the cells are plated (edge wells are filled with sterile PBS)”, “3×10^4” for “1×10^3-10^4”, “1.71,” for “1.71 and”, “The” for “10 μL of CCK8 solution is added to each well and then the”, “trypsinized and counted.” for “continuously incubated for 2 hours. The absorbance of each well is measured at OD=450 nm with the microplate reader.”

[2] = tested on: SMMC7721 liver cancer cells; test: Cell experiment, cell survival rate; format: cell-based; conditions: SMMC-7721, 48 h
Protocol: as §1
as §1, with “and 1” for “100”, “of a 6-well plate” for “and the cells are plated (edge wells are filled with sterile PBS)”, “3×10^4” for “1×10^3-10^4”, “1.71,” for “1.71 and”, “The” for “10 μL of CCK8 solution is added to each well and then the”, “trypsinized and counted.” for “continuously incubated for 2 hours. The absorbance of each well is measured at OD=450 nm with the microplate reader.”

[3] = tested on: TPC-1 thyroid cancer cells; test: Cell experiment, cell survival rate; format: cell-based; conditions: 48 h
Protocol: as §1
as §1, with “and 1” for “100”, “of a 6-well plate” for “and the cells are plated (edge wells are filled with sterile PBS)”, “3×10^4” for “1×10^3-10^4”, “1.71,” for “1.71 and”, “The” for “10 μL of CCK8 solution is added to each well and then the”, “trypsinized and counted.” for “continuously incubated for 2 hours. The absorbance of each well is measured at OD=450 nm with the microplate reader.”

[4] = tested on: murine liver cancer H22 cells; test: Cell experiment, cell survival rate; format: cell-based; conditions: 48 h
Protocol: as §1
as §1, with “and 1” for “100”, “of a 6-well plate” for “and the cells are plated (edge wells are filled with sterile PBS)”, “3×10^4” for “1×10^3-10^4”, “1.71,” for “1.71 and”, “The” for “10 μL of CCK8 solution is added to each well and then the”, “trypsinized and counted.” for “continuously incubated for 2 hours. The absorbance of each well is measured at OD=450 nm with the microplate reader.”

[5] = tested on: subcutaneous transplantation tumors of 9 types of cancer cells; test: Tumor growth inhibition experiments, subcutaneous transplantation tumors; format: in vivo, mice; conditions: FIGS. 4-39
Protocol: Cells growing in a log phase are collected, the concentration of the cell suspension is adjusted to 3×10^7 cells/mL, and the cell suspension is inoculated subcutaneously into the right upper extremities of nude mice at the inoculation dosage of 0.1 mL (about 3×10^6 cells) per mouse. When the average tumor volume of the inoculated mice reaches 100 mm^3, the tumor-bearing mice are randomly divided into the following groups (8 nude mice per group): a negative control group (0.9% sodium chloride injection), a nanocarbon control group, an iron preparation control group, a nanocarbon-iron suspension experimental group, and a cis-platinum control group (intraperitoneal injection at the dosage of 5 mg/kg). The above various drugs are injected into the tumors. The tumor volume changes are recorded, and the formula for calculating the volume is Volume=(length×the square of width)/2.
Milky white and thick ascites is extracted from the H22 tumor-bearing mice, the concentration of the cell suspension is adjusted to be 3×10^7 cells/mL, 0.1 mL of cell suspension (about 3×10^6 cells) is inoculated subcutaneously into the right upper extremity of each of Kunming mice. When the average tumor volume of the inoculated mice reaches 100 mm^3, the tumor-bearing mice are randomly divided into the following groups (8 mice per group): a negative control group (0.9% sodium chloride injection), a nanocarbon control group, an iron preparation control group, a nanocarbon-iron suspension experimental group, and a cis-platinum control group (intraperitoneal injection at the dosage of 5 mg/kg). The above various drugs are injected into the tumors. The tumor volume changes are recorded, and the formula for calculating the volume is Volume=(length×the square of width)/2.

[6] = tested on: H22 metastatic lymph nodes; test: Lymph node metastasis inhibition experiment; format: in vivo, Kunming mouse; conditions: popliteal lymph nodes
Protocol: (§2) Milky white and thick ascites is extracted from the H22 tumor-bearing mice, the concentration is adjusted to be 3×10^7 cells/mL, 0.05 mL of cell suspension (about 1.5×10^6 cells) is inoculated subcutaneously into the left hind foot pads of each Kunming mouse, and thus a lymph node metastasis mouse model is obtained. The mice are treated when the diameter of the tumor reaches 6-8 mm and there is no ulcer and necrosis. The mice are randomly divided into four groups (10 mice per group): a negative control group (0.9% sodium chloride injection), a nanocarbon control group, an iron preparation control group and a nanocarbon-iron suspension experimental group. 10 days after inoculation, the mice are killed, and popliteal lymph nodes are collected, weighed and fixed for pathological examination.

[7] = tested on: A549 metastatic lymph nodes; test: Lymph node metastasis inhibition experiment; format: in vivo, nude mouse; conditions: popliteal lymph nodes
Protocol: as §2, with “Cells growing in a log phase are collected,” for “Milky white and thick ascites is extracted from the H22 tumor-bearing mice,”, “concentration of the cell suspension” for “concentration”, “to” for “to be”, “the” for “0.05 mL of”, “suspension” for “suspension (about 1.5×10^6 cells)”, “nude mouse at the inoculation volume of 0.05 mL (about 1.5×10^6 cells)” for “Kunming mouse,”

[8] = tested on: HCT116 metastatic lymph nodes; test: Lymph node metastasis inhibition experiment; format: in vivo, nude mouse; conditions: popliteal lymph nodes
Protocol: as §2, with “Cells growing in a log phase are collected,” for “Milky white and thick ascites is extracted from the H22 tumor-bearing mice,”, “concentration of the cell suspension” for “concentration”, “to” for “to be”, “the” for “0.05 mL of”, “suspension” for “suspension (about 1.5×10^6 cells)”, “nude mouse at the inoculation volume of 0.05 mL (about 1.5×10^6 cells)” for “Kunming mouse,”

[9] = tested on: Hela metastatic lymph nodes; test: Lymph node metastasis inhibition experiment; format: in vivo, nude mouse; conditions: popliteal lymph nodes
Protocol: as §2, with “Cells growing in a log phase are collected,” for “Milky white and thick ascites is extracted from the H22 tumor-bearing mice,”, “concentration of the cell suspension” for “concentration”, “to” for “to be”, “the” for “0.05 mL of”, “suspension” for “suspension (about 1.5×10^6 cells)”, “nude mouse at the inoculation volume of 0.05 mL (about 1.5×10^6 cells)” for “Kunming mouse,”

[10] = tested on: MDA-MB-231 metastatic lymph nodes; test: Lymph node metastasis inhibition experiment; format: in vivo, nude mouse; conditions: popliteal lymph nodes
Protocol: as §2, with “Cells growing in a log phase are collected,” for “Milky white and thick ascites is extracted from the H22 tumor-bearing mice,”, “concentration of the cell suspension” for “concentration”, “to” for “to be”, “the” for “0.05 mL of”, “suspension” for “suspension (about 1.5×10^6 cells)”, “nude mouse at the inoculation volume of 0.05 mL (about 1.5×10^6 cells)” for “Kunming mouse,”

[11] = tested on: SGC-7901 metastatic lymph nodes; test: Lymph node metastasis inhibition experiment; format: in vivo, nude mouse; conditions: popliteal lymph nodes
Protocol: as §2, with “Cells growing in a log phase are collected,” for “Milky white and thick ascites is extracted from the H22 tumor-bearing mice,”, “concentration of the cell suspension” for “concentration”, “to” for “to be”, “the” for “0.05 mL of”, “suspension” for “suspension (about 1.5×10^6 cells)”, “nude mouse at the inoculation volume of 0.05 mL (about 1.5×10^6 cells)” for “Kunming mouse,”

[12] = tested on: SKOV3 metastatic lymph nodes; test: Lymph node metastasis inhibition experiment; format: in vivo, nude mouse; conditions: popliteal lymph nodes
Protocol: as §2, with “Cells growing in a log phase are collected,” for “Milky white and thick ascites is extracted from the H22 tumor-bearing mice,”, “concentration of the cell suspension” for “concentration”, “to” for “to be”, “the” for “0.05 mL of”, “suspension” for “suspension (about 1.5×10^6 cells)”, “nude mouse at the inoculation volume of 0.05 mL (about 1.5×10^6 cells)” for “Kunming mouse,”

[13] = tested on: SMMC-7721 metastatic lymph nodes; test: Lymph node metastasis inhibition experiment; format: in vivo, nude mouse; conditions: popliteal lymph nodes
Protocol: as §2, with “Cells growing in a log phase are collected,” for “Milky white and thick ascites is extracted from the H22 tumor-bearing mice,”, “concentration of the cell suspension” for “concentration”, “to” for “to be”, “the” for “0.05 mL of”, “suspension” for “suspension (about 1.5×10^6 cells)”, “nude mouse at the inoculation volume of 0.05 mL (about 1.5×10^6 cells)” for “Kunming mouse,”

[14] = tested on: TPC-1 metastatic lymph nodes; test: Lymph node metastasis inhibition experiment; format: in vivo, nude mouse; conditions: popliteal lymph nodes
Protocol: as §2, with “Cells growing in a log phase are collected,” for “Milky white and thick ascites is extracted from the H22 tumor-bearing mice,”, “concentration of the cell suspension” for “concentration”, “to” for “to be”, “the” for “0.05 mL of”, “suspension” for “suspension (about 1.5×10^6 cells)”, “nude mouse at the inoculation volume of 0.05 mL (about 1.5×10^6 cells)” for “Kunming mouse,”

[15] = tested on: lymph node metastasis of 9 types of tumor cells; test: Lymph node metastasis inhibition experiment, summary; format: in vivo, mice
Protocol: as §2, with “Cells growing in a log phase are collected,” for “Milky white and thick ascites is extracted from the H22 tumor-bearing mice,”, “concentration of the cell suspension” for “concentration”, “to” for “to be”, “the” for “0.05 mL of”, “suspension” for “suspension (about 1.5×10^6 cells)”, “nude mouse at the inoculation volume of 0.05 mL (about 1.5×10^6 cells)” for “Kunming mouse,”
as §2

[16] = iron preparation alone 0.43 μg/mL
[17] = iron preparation alone 1.71 μg/mL
[18] = iron preparation alone 6.83 μg/mL
[19] = iron preparation alone 13.65 μg/mL

## ammonium ferric citrate
[1]
  Cell Survival Rate: 100%
[2]; [16]
  Cell Survival Rate: 100%
[2]; [17]
  Cell Survival Rate: 98.43%
[2]; [18]
  Cell Survival Rate: 94.19%
[2]; [19]
  Cell Survival Rate: 100%
[3]; [16]
  Cell Survival Rate: 97.30%
[3]; [17]
  Cell Survival Rate: 96.41%
[3]; [18]
  Cell Survival Rate: 100%
[3]; [19]
  Cell Survival Rate: 100%
[4]; [16]
  Cell Survival Rate: 96.21%
[4]; [17]
  Cell Survival Rate: 97.64%
[4]; [18]
  Cell Survival Rate: 95.12%
[4]; [19]
  Cell Survival Rate: 100%
[5]
  inhibition effect on growth of 9 types of tumors: do not have an inhibition effect
[6]
  Weight of Lymph Node: 53.94 ± 11.58 mg
[7]
  Weight of Lymph Node: 45.67 ± 10.68 mg
[8]
  Weight of Lymph Node: 49.57 ± 20.67 mg
[9]
  Weight of Lymph Node: 30.94 ± 10.68 mg
[10]
  Weight of Lymph Node: 46.97 ± 10.36 mg
[11]
  Weight of Lymph Node: 43.69 ± 8.97 mg
[12]
  Weight of Lymph Node: 32.98 ± 6.42 mg
[13]
  Weight of Lymph Node: 56.98 ± 17.59 mg
[14]
  Weight of Lymph Node: 41.97 ± 20.12 mg
[15]
  inhibition effect on the metastatic lymph nodes: do not have an inhibition effect
